In paper PMC9894841, “Characterisation of a cyclic peptide that binds to the RAS binding domain of phosphoinositide 3-kinase p110α” (Scientific Reports, 2023):
“And” between values parts separate entries of the source, which are not always exact repeats. Equal entries are not always repeated. “Also recorded” adds a separate entry of the source. Residues, ends and D or L forms follow the SMILES beside them.

Tests used:
[1] = biological target: p110α (p110α/p85α) (Homo sapiens, UniProt P42336); assay: Microscale thermophoresis (MST) binding to labelled p110α/p85α; conditions: for Kd: labelled protein 100 nM, 25 °C; for increase in affinity for p110α over cyclo-CRVLAA: MST
Sequence of p110α (p110α/p85α) (P42336 whole entry, species assumed): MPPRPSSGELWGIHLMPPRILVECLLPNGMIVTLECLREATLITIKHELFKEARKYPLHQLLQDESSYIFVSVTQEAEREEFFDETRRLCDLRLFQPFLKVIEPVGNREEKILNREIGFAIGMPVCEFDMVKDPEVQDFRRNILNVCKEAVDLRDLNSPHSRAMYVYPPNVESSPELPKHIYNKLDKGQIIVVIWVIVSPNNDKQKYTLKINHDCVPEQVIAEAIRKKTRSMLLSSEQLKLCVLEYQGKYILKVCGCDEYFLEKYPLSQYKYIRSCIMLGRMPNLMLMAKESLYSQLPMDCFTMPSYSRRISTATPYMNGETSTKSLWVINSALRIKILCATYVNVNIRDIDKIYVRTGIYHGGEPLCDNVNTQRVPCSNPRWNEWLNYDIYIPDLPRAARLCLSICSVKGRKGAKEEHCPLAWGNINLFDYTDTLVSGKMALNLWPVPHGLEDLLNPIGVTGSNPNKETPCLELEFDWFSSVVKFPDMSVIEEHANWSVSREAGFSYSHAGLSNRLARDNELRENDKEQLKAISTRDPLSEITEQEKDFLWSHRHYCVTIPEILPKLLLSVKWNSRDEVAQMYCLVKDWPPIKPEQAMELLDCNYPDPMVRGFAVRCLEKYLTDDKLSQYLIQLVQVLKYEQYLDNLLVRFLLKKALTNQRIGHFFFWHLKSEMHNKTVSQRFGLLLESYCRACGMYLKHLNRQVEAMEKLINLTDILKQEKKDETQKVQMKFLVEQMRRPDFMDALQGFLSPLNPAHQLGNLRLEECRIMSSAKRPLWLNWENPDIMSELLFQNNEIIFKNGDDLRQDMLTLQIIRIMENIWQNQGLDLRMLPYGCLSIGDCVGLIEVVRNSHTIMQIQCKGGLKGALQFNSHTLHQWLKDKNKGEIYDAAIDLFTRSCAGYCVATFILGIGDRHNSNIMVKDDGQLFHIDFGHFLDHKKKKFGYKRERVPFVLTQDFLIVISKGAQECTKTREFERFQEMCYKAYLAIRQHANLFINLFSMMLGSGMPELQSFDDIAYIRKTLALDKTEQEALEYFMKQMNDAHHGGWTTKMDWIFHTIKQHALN
Sequence of p110α (p110α/p85α) (P27986 whole entry partner, species assumed): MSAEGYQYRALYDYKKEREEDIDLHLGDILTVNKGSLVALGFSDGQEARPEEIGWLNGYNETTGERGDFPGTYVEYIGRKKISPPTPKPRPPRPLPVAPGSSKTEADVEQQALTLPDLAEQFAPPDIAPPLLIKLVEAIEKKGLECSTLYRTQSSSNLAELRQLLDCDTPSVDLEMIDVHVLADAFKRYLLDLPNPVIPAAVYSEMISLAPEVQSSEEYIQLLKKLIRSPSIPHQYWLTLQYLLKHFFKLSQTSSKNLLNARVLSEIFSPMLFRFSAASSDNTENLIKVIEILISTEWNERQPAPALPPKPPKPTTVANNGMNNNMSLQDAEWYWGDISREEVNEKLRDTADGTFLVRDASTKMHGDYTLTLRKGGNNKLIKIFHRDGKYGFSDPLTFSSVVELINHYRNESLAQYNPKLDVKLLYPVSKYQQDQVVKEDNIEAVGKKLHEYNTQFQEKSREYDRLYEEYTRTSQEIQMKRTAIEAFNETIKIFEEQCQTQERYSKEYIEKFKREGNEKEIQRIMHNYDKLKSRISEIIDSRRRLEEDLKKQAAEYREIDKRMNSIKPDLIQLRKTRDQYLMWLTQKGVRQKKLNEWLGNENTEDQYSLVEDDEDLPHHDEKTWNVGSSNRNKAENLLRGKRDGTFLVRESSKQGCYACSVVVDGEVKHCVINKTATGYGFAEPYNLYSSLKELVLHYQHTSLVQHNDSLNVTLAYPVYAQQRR

[2] = biological target: T1, GST-RBDα/KRAS (Homo sapiens, UniProt P42336); assay: GST-RBDα/KRAS reverse two-hybrid system (RTHS), SICLOPPS screen; assay type: cell-based, E. coli; conditions: arabinose induced expression of the cyclic peptide
T1 construct: we created a fusion of the RBD (amino acids 133 – 314) with GST; expressed in transfected cells; host or cells: E. coli strain SNS126 (cassette integrated via pAH68)
T1 sequence (P42336 133-314): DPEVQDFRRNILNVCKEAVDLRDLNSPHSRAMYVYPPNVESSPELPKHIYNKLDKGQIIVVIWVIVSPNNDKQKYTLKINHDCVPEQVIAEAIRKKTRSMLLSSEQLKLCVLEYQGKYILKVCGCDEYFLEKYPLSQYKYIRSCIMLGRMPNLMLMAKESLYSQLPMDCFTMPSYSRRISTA
Description: The SICLOPPS technique as previously published is based on two steps: first, building a reverse two-hybrid system (RTHS) that expresses the target protein complex in bacteria as a screening platform and second, the production of a genetically encoded cyclic peptide library[25]–[29]. […] Also, the expression of the full length p110α needs to be in association with the regulatory subunit p85α in order to achieve a stable protein dimer, which makes it a large and complex protein to express in bacteria. In a successful RTHS system, the engineered bacterial cell line should show a reduction of growth on selective media upon induction of expression of the target protein complex with increasing isopropyl β-d-1-thiogalactopyranoside (IPTG)[27]–[29]. […] We hypothesised that this could be due to a lack of solubility of RBDα, a previously described feature of the RBDs of p110 proteins. Therefore, we designed another RTHS carrying a GST fusion tag at the N-terminus of the RBDα (GST-RBDα/KRAS RTHS).
We used the GST-RBDα/KRAS RTHS to screen a CXXXXX (where X is any of the 20 canonical amino acids) SICLOPPS plasmid library of 3.2 million genetically encoded cyclic hexapeptides. The cyclic peptides contain an invariant cysteine and five other amino acids that are each equally distributed between the twenty possibilities. Thus, each SICLOPPS plasmid contains a different sequence representing a unique peptide.
Due to the lack of solubility of the p110α-RBD we created a fusion of the RBD (amino acids 133 – 314) with GST (Glutathione S-transferase) by PCR amplification, to produce a recombinant protein of GST-RBD (hereafter RBD). Both KRAS (amino acids 1–168—lacking the Hyper Variable Region) and the RBD were cloned into the pTHCP14 vector that contains two bacteriophage repressors P22 and 434, producing a cassette that consists of two fusion proteins—KRAS with 434 and RBD with P22. This cassette was then sub-cloned into the CRIM integration plasmid pAH68—for integration into E. coli strain SNS126 that contains the chimeric P22 and 434 operators. When expressed, the interaction of KRAS with the RBD brings together the P22 and the 434 repressors to form a dimer that will interact with the chimeric P22 and 434 operators—resulting in no growth on selective media.
The SICLOPPS library was generated by PCR amplification using degenerate primers encoding cyclo-CXXXXX hexapeptides (where X is any amino acid), producing around 3.2 million compounds. The SICLOPPS RTHS formation, cyclic peptide production and library screening were followed as described[24],[25],[46].

[3] = Solubility of the peptides (in words); assay type: physicochemical
[4] = biological target: CRAF-RBD (Homo sapiens, UniProt P04049); assay: MST binding to CRAF-RBD
Sequence of CRAF-RBD (P04049 56-131 limits assumed): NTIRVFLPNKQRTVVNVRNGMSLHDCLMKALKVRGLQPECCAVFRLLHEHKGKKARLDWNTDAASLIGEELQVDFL
Procedure: Measurements were performed using a NanoTemper Monolith™ NT.115 instrument (NanoTemper Technologies GmbH, München, Germany). […] Labelling levels (generally in the range 0.3–0.4 dye molecules per protein molecule) were determined using calculated extinction coefficients for the protein and ε647 = 250,000 M^−1 cm^−1 (or ε495 = 70,000 M^−1 cm^−1) for the dye concentration. In a typical experiment 20 ml aliquots of a 100 nM stock solution of labelled protein were mixed with 20 ml aliquots of a serial dilution of binding partner. These solutions were then loaded into standard treated capillaries and MST measurements were performed at 25 °C using 20–40% LED power and 40–60% IR-Laser power. The laser Laser-On time was 30 s and Laser-Off time 5 s. All measurements were performed at least five times.

[5] = test system: H1792 cells; assay: Western blot of phospho-AKT / phospho-ERK in H1792 cells; assay type: cell-based, human; conditions: RPMI 1640 10% FCS, 2, 10 and 50 µM (also 4, 20 and 100 µM), 4 h
Procedure: We treated the human lung cancer cell line H1792, growing at steady-state in Roswell Park Memorial Institute (RPMI) 1640 media with 10% Foetal Calf Serum (FCS), with the seven cyclic peptides at three different concentrations (2, 10 and 50 µM) for 4 h. After treatment we measured the effect of the peptides on the phosphorylation levels of AKT (pAKT-Ser473), a key downstream effector of p110α activity. […] In contrast, the phosphorylation levels of ERK (p-ERK), which is a downstream effector of the RAS/RAF/MEK/ERK pathway and is independent of p110α activity, were not affected.
The next day, 1 ml of medium was removed and the cells were treated with different peptide concentrations for 4 h. All peptides were dissolved in 25 mM Tris pH8, 100 mM NaCl and 1 mM TCEP. Cells were then harvested and lysed for SDS-PAGE and western blot analysis. Anti-calnexin antibody was obtained from Abcam. Antibodies directed against phospho-T202/Y204-ERK, ERK, phospho-S473-AKT and AKT were obtained from Cell Signaling. After western blotting, calnexin, AKT and phospho-AKT signals were quantified using ImageJ and statistical tests were done using Prism software.

Row | Compound | Kd [1] | regrowth of the GST-RBDα/KRAS RTHS on selective media with IPTG [2] | also measured
1 | CC(C)C[C@@H]1NC(=O)[C@H](C(C)C)NC(=O)[C@H](CCCNC(=N)N)NC(=O)[C@H](CS)NC(=O)[C@H](CCC(=O)O)NC(=O)[C@H](C)NC1=O [CRVLAE, Cyclo-CRVLAE] (cyclo(CRVLAE)) | ≥ 817 µM | – | –
2 | CC(C)C[C@@H]1NC(=O)[C@H](C(C)C)NC(=O)[C@H](CCCNC(=N)N)NC(=O)[C@H](CS)NC(=O)[C@H](C)NC(=O)[C@H](CC(=O)O)NC1=O [CRVLDA, Cyclo-CRVLDA] (cyclo(CRVLDA)) | ≥ 476 µM | – | –
3 | CC(C)C[C@@H]1NC(=O)[C@H](C(C)C)NC(=O)[C@H](CCCNC(=N)N)NC(=O)[C@H](CS)NC(=O)[C@H](C)NC(=O)[C@H](CCC(=O)O)NC1=O [CRVLEA, Cyclo-CRVLEA] (cyclo(CRVLEA)) | ≥ 1210 µM | – | –
4 | CC(C)C[C@@H]1NC(=O)[C@H](C(C)C)NC(=O)[C@H](CCCNC(=N)N)NC(=O)[C@H](CS)NC(=O)[C@H](C)NC(=O)[C@H](CCCNC(=N)N)NC1=O [CRVLRA, Cyclo-CRVLRA] (cyclo(CRVLRA)) | ≥ 140 µM | – | –
5 | CC(C)C[C@@H]1NC(=O)[C@H](CCCCN)NC(=O)[C@H](CS)NC(=O)[C@H](CC(C)C)NC(=O)[C@H](C(C)C)NC(=O)[C@H](C(C)C)NC1=O [cyclo-CKLVVL, Cyclo-CKLVVL] (cyclo(CKLVVL)) | – | regrowth | –
6 | CC(C)C[C@@H]1NC(=O)[C@H](CS)NC(=O)[C@H](Cc2ccc(O)cc2)NC(=O)[C@H](Cc2c[nH]c3ccccc23)NC(=O)[C@H](Cc2c[nH]c3ccccc23)NC(=O)[C@H](C(C)C)NC1=O [cyclo-CLVWWY, Cyclo-CLVWWY] (cyclo(CLVWWY)) | – | regrowth | –
7 | CC(C)C[C@@H]1NC(=O)[C@H](CS)NC(=O)[C@H](Cc2c[nH]c3ccccc23)NC(=O)[C@H](Cc2c[nH]c3ccccc23)NC(=O)[C@H](Cc2ccc(O)cc2)NC(=O)[C@H](Cc2c[nH]c3ccccc23)NC1=O [cyclo-CLWYWW, Cyclo-CLWYWW] (cyclo(CLWYWW)) | – | regrowth | –
8 | CSCC[C@@H]1NC(=O)[C@H](CS)NC(=O)[C@H](CCCNC(=N)N)NC(=O)CNC(=O)CNC(=O)[C@H](CO)NC1=O [cyclo-CMSGGR, Cyclo-CMSGGR] (cyclo(CMSGGR)) | – | regrowth | –
9 | CC[C@H](C)[C@@H]1NC(=O)[C@H](CCCNC(=N)N)NC(=O)[C@H](CS)NC(=O)[C@H]([C@@H](C)CC)NC(=O)[C@H](C(C)C)NC(=O)[C@H](C(C)C)NC1=O [cyclo-CRIVVI, Cyclo-CRIVVI] (cyclo(CRIVVI)) | – | regrowth | –
10 | CC(C)C[C@@H]1NC(=O)[C@H](C(C)C)NC(=O)[C@H](CCCNC(=N)N)NC(=O)[C@H](CS)NC(=O)[C@H](C)NC(=O)[C@H](C)NC1=O [cyclo-CRVLAA, Cyclo-CRVLAA] | ≥ 360 µM and ~360 µM | – | solubility in words [3]: most soluble of these; binding to p110α in words, MST [1]: weak binding; also recorded: interacted weakly
11 | CC(C)C[C@@H]1NC(=O)[C@H](C(C)C)NC(=O)[C@H](CCCNC(=N)N)NC(=O)[C@H](CS)NC(=O)[C@H](CC(=O)O)NC(=O)[C@H](C)NC1=O [cyclo-CRVLAD, Cyclo-CRVLAD] | 11.8 ± 1.75 µM | – | increase in affinity for p110α over cyclo-CRVLAA [1]: 30 fold; binding to CRAF-RBD in words, MST [4]: does not interact; also recorded: did not produce a positive signal of interaction
12 | CC(C)C[C@@H]1NC(=O)[C@H](C(C)C)NC(=O)[C@H](CCCNC(=N)N)NC(=O)[C@H](CS)NC(=O)[C@H](CCCNC(=N)N)NC(=O)[C@H](C)NC1=O [cyclo-CRVLAR, Cyclo-CRVLAR] (cyclo(ARCRVL)) | – | – | increase in affinity for p110α over cyclo-CRVLAA [1]: tenfold
13 | CC(C)C[C@@H]1NC(=O)[C@H](C(C)C)NC(=O)[C@H](CCCNC(=N)N)NC(=O)[C@H](CS)NC(=O)[C@H](CCCNC(=N)N)NC(=O)[C@H]([C@@H](C)O)NC1=O [cyclo-CRVLTR, Cyclo-CRVLTR] (cyclo(CRVLTR)) | – | – | effect on phospho-AKT (pAKT-Ser473) levels [5]: mild effect
14 | CC[C@H](C)[C@@H]1NC(=O)[C@H](C(C)C)NC(=O)[C@H](CS)NC(=O)[C@H](C(C)C)NC(=O)[C@H](C(C)C)NC(=O)[C@H](CC(C)C)NC1=O [cyclo-CVILVV, Cyclo--CVILVV] (cyclo(CVILVV)) | – | regrowth | –
15 | CC(C)C[C@@H]1NC(=O)[C@H](Cc2ccc(O)cc2)NC(=O)[C@H](CC(C)C)NC(=O)[C@H](CC(C)C)NC(=O)[C@H](Cc2c[nH]c3ccccc23)NC(=O)[C@H](CS)NC1=O [cyclo-CWLLYL, Cyclo-CWLLYL] (cyclo(CWLLYL)) | – | regrowth | –
16 | Cyclo-CAWCGR | – | regrowth | –
